Measurements: patent US20090099218A1, “SYNTHESIS OF NOVEL TUBULIN POLYMERIZATION INHIBITORS: BENZOYLPHENYLUREA (BPU) SULFUR ANALOGS” (priority 2007, published 2009)

Legend:
Panc1005 = assay: MTT growth inhibition, pancreatic cell line Panc1005; type: cell-based; conditions: Homo sapiens, Panc1005; MTT assay, 96 h treatment; average of three independent experiments
Description: (§1) Eight of these analogs 6d, 6h, 6n, 6g, 7b, 7d, 8g, and 8h were tested for their cytotoxicity in seven pancreatic cell lines ASPC1, Panc1, Panc203, Panc430, Pane 1005, MiaPaca2, and HS766T using MTT assay. Cells were trypsinized, seeded at 5×10^3 cells/well in 96-well plate and allowed to grow for 24 hours before the treatment with exponential increasing concentrations of drugs in the presence of 10% FBS. After a 96-hours period of treatment, 20 μl of MTT solution (5 mg/ml in PBS) were added to each well, and the plates were then incubated for 3 hours at 37° C. Medium was then replaced with 100 μl of DMSO per well. Plates were shaken and the optical density was measured at 570 nm using a multiwell plate reader (Bio-Rad, Model 550, Bio-Rad Inc., Hercules, Calif.). Each experiment was performed in triplicate for each drug concentration and was carried out independently at least 3 times. The IC50 value was defined as the concentration needed for a 50% reduction in the absorbance calculated based on the survival curves. Response to drug treatment was assessed by standardizing treatment groups to untreated controls. Compounds activity was compared with compound 1.
(§2) Table 2 (Growth Inhibition of Pancreatic Cancer Cell Lines by BPU and BPTU Analogues (IC50) a) compares the cytotoxicity of a series of new derivatives against a panel of seven pancreatic cancer cell lines, as determined by MTT assay. See, Mosmann, T., J. Immunol. Methods 65:55-63 (1983).

ASPC1 = assay: MTT growth inhibition, pancreatic cell line ASPC1; type: cell-based; conditions: Homo sapiens, ASPC1; MTT assay, 96 h treatment; average of three independent experiments
Description: as §1, §2

Panc203 = assay: MTT growth inhibition, pancreatic cell line Panc203; type: cell-based; conditions: Panc203; for IC50: Homo sapiens, MTT assay, 96 h treatment, average of three independent experiments
Description: as §1, §2

Miapaca2 = assay: MTT growth inhibition, pancreatic cell line Miapaca2; type: cell-based; conditions: for IC50: Homo sapiens, MIA PaCa-2, MTT assay, 96 h treatment, average of three independent experiments
Description: as §1, §2

tubulin = assay: Inhibition of tubulin polymerization; type: biochemical; conditions: for IC50: Tubulin was at 10 μM, read-out: tubulin IC50 ± SD (inhibition of tubulin polymerization)
Description: Briefly, tubulin polymerization was followed turbidimetrically at 350 nm in Beckman model DU7400 and DU7500 recording spectrophotometers equipped with electronic temperature controllers. […] Samples were pre-incubated for 15 min at 30° C. and chilled on ice. GTP (final concentration, 0.4 mmol/L) was added to each reaction mixture, and these were placed in cuvettes held at 0° C. Baselines were established, the temperature was raised to 30° C.

[1] = tested on: 11 pancreatic cancer cell line panel; assay: Clonogenic growth, pancreatic cancer cell line panel; type: cell-based; conditions: doses above 0.5 μmol/L
Description: The cell lines ASPC1, MiaPaca2, HS766T, and L36PL were obtained from the American Tissue Culture Collection and are derived from pancreas carcinomas. The cell lines Panc1, Panc203, and Panc1005 are low-passage pancreas cell lines. The cell lines XPA3 and XPA4 are lowpassage. The cell lines E3LZ10 and E3JD13 are lowpassage pancreas cell lines. For clonogenic assessment, 500 cells per well were seeded in six-well plates with enriched RPMI (10% fetal bovine serum+1% penicillin/streptomycin) and exposed to increasing drug concentrations for 96 h. After this, the drug was removed, and the cells were allowed to grow for 14 days before manual colony counting. Each experiment was done in duplicate for each drug concentration and was carried out independently at least thrice. For MAPT protein and mRNA expression analysis, the cell lines were grown in six-well plates with enriched RPMI. When the cells reached a 60% to 70% confluence, they were washed twice with chilled PBS; lysis buffer was added to the plates; and the cells were scraped for protein extraction. An identical experimental set was lysed with RLT (Qiagen) for mRNA extraction.
Clonogenic growth was impaired at concentrations between 0.01 and 0.5 μmol/L (FIG. 35B), with no colony formation at higher doses in 9 of the 11 cell lines. […] Two isoforms of MAPT protein were detected (45 and 65 kDa). […]

HS766 = assay: MTT growth inhibition, pancreatic cell line HS766; type: cell-based; conditions: Homo sapiens, Hs 766; MTT assay, 96 h treatment; average of three independent experiments
Description: as §1, §2

Row | Compound | IC50 (Panc1005) | IC50 (ASPC1) | IC50 (Panc203) | increase in activity compared to 7c (Panc203) | IC50 (Miapaca2) | increase in activity compared to 7c (Miapaca2; Miapaca2) | IC50 (tubulin) | cell lines with no colony formation at higher doses [1] | IC50 (HS766) | increase in potency over 6m (Panc203) | increase in potency over 6m (Miapaca2; Mia-paca2) | potency as inhibitor of tubulin assembly relative to 7d (tubulin)
1 | Nc1ccccc1C(=O)NC(=O)Nc1ccc(Sc2ncc(Br)cn2)cc1 [Compound 7d] | 10 µM | 450 nM | 85 nM | > 117 fold | 95 nM | 9 fold | > 40000 nM | 9 of the 11 | 700 nM |  |  | 
2 | O=C(NC(=O)c1ccccc1[N+](=O)[O-])Nc1ccc(Sc2ncc(Br)cn2)cc1 [Compound 6n, 1-[4-(5-Bromopyrimidin-2-ylsulfanyl)phenyl]-3-(2-nitrobenzoyl)-urea] | 10 µM | 1000 nM | 700 nM |  | 86 nM |  | 2100 nM | 9 of the 11 | 88 nM | 14 fold | 8 fold | twice as potent
